In ChEMBL document CHEMBL4706640, “Structure-Based Drug Design and Synthesis of PI3Kα-Selective Inhibitor (PF-06843195)” (J Med Chem, 2021):
Values after ≈ are worked out from the molar mass of the structure shown.

Assays:
[1] = target: Phosphatidylinositol 4,5-bisphosphate 3-kinase catalytic subunit beta isoform (Homo sapiens, UniProt P42338); assay: Inhibition of recombinant human N-terminal Myr signal and C-terminal Flag-tagged PI3K p110beta expressed in rat Rat1 cells; format: cell-based
Rat1 [2] = assay: Selectivity index, ratio of IC50 for recombinant human N-terminal Myr signal and C-terminal Flag-tagged PI3K p110beta to IC50 for recombinant human N-terminal Myr signal and C-terminal Flag-tagged PI3K p110alpha expressed in rat Rat1 cells; format: cell-based
[3] = target: T1, Phosphatidylinositol 4,5-bisphosphate 3-kinase catalytic subunit delta isoform (Homo sapiens, UniProt O00329); assay: Inhibition of recombinant human N-terminal Myr signal and C-terminal Flag-tagged PI3K p110delta expressed in rat Rat1 cells; format: cell-based
T1 sequence (O00329 whole entry): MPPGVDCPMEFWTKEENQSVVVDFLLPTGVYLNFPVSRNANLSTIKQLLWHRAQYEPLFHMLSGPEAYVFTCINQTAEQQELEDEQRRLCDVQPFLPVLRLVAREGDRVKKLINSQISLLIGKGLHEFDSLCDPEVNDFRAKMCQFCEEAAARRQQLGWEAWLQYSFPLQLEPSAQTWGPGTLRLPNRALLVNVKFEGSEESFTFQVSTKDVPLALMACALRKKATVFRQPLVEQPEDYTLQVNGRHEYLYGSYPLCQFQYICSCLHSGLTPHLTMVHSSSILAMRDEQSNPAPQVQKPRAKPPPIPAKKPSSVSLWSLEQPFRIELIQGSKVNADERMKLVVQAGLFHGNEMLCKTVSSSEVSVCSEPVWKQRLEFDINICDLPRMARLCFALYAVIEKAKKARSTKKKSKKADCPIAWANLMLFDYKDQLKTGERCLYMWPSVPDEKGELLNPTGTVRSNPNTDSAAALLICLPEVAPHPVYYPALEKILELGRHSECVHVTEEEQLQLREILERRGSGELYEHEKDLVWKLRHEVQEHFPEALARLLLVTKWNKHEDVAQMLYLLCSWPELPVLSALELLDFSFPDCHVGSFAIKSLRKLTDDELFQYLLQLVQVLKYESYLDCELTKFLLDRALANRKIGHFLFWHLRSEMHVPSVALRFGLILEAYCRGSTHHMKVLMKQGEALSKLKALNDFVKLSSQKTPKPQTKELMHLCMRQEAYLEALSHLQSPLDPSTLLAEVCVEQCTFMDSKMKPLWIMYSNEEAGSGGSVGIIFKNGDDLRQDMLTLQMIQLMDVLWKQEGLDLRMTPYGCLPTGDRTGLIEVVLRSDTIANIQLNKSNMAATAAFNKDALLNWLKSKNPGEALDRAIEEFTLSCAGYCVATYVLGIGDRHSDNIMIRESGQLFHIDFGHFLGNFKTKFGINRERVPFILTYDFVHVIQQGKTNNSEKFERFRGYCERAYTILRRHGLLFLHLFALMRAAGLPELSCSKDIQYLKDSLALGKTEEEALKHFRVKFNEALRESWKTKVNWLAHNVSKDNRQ

Rat1 [4] = assay: Selectivity index, ratio of IC50 for recombinant human N-terminal Myr signal and C-terminal Flag-tagged PI3K p110delta to IC50 for recombinant human N-terminal Myr signal and C-terminal Flag-tagged PI3K p110alpha expressed in rat Rat1 cells; format: cell-based
[5] = Distribution coefficient, logD of compound at pH 7.4; format: physicochemical; details: octanol/water
[6] = Apparent intrinsic clearance in human liver microsomes; format: ADME, Microsome; details: read-out: CLH(app)
[7] = target: PI3-kinase p110-delta/p85-alpha (Homo sapiens, UniProt O00329); assay: Inhibition of recombinant human PI3K p110delta/p85alpha using phosphatidylinositol 4,5-bisphosphate as substrate preincubated for 15 mins followed by addition of ATP and measured after 30 mins by fluorescence polarisation assay; format: protein-complex assay
Chain of PI3-kinase p110-delta/p85-alpha (P27986 whole entry, one chain of several, canonical isoform): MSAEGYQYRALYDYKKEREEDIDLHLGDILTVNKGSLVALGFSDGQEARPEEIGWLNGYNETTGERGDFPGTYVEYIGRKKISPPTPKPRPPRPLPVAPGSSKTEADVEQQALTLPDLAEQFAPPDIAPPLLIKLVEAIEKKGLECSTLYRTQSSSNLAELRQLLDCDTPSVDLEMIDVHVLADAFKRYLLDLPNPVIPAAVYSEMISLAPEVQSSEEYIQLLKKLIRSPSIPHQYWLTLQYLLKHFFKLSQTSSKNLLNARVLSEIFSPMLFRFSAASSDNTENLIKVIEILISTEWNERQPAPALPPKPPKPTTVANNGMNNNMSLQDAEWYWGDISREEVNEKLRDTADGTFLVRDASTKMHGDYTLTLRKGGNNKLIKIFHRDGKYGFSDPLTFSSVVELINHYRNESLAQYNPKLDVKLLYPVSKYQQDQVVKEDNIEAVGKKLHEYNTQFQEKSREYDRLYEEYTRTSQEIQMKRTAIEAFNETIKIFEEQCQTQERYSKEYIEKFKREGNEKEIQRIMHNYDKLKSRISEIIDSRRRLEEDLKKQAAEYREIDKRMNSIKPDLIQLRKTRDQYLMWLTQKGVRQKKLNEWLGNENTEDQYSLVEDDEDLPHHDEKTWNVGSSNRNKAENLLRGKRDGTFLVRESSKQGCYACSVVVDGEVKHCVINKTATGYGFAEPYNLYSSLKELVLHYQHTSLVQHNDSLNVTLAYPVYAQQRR

[8] = target: Phosphatidylinositol 4,5-bisphosphate 3-kinase catalytic subunit alpha isoform (Homo sapiens, UniProt P42336); assay: Inhibition of recombinant human N-terminal Myr signal and C-terminal Flag-tagged PI3K p110alpha expressed in rat Rat1 cells; format: cell-based
Chain of Phosphatidylinositol 4,5-bisphosphate 3-kinase catalytic subunit alpha isoform (P42336 whole entry, canonical isoform): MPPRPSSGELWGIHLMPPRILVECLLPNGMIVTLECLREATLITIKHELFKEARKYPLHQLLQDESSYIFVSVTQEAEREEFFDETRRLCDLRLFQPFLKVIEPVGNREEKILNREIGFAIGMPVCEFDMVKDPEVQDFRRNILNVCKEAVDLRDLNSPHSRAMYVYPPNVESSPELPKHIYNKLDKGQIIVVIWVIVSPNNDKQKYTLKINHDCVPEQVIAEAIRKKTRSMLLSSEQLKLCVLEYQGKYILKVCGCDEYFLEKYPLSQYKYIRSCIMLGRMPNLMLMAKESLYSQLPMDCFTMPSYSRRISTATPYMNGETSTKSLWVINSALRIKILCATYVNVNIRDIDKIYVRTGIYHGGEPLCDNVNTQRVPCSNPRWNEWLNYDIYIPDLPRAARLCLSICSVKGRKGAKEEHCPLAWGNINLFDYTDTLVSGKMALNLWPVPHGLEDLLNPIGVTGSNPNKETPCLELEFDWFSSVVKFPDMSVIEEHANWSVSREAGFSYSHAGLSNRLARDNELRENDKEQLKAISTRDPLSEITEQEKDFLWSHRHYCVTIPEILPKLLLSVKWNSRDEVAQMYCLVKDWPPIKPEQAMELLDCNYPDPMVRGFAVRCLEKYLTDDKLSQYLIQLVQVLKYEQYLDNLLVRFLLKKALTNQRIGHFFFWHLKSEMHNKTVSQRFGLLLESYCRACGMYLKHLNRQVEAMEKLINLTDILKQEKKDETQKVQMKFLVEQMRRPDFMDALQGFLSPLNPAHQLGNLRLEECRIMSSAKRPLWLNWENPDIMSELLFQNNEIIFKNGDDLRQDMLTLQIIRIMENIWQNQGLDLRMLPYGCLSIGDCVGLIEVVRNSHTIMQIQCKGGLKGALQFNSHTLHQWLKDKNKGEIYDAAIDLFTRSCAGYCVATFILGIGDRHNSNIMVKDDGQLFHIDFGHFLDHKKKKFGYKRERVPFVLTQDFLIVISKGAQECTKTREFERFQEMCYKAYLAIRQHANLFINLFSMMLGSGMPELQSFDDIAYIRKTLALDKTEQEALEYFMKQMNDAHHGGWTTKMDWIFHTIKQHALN

[9] = Kinetic solubility of compound; format: physicochemical; details: read-out: Kinetic_solubility
PI3K p110 beta/p85 alpha = PI3K p110 beta/p85 alpha (Homo sapiens, UniProt P42338); assay: Inhibition of recombinant human PI3K p110beta/p85alpha using phosphatidylinositol 4,5-bisphosphate as substrate preincubated for 15 mins followed by addition of ATP and measured after 30 mins by fluorescence polarisation assay; format: protein-complex assay
Chain of PI3K p110 beta/p85 alpha (P27986 whole entry): as the sequence (P27986 whole entry, one chain of several, canonical isoform) above
Chain of PI3K p110 beta/p85 alpha (P42338 whole entry): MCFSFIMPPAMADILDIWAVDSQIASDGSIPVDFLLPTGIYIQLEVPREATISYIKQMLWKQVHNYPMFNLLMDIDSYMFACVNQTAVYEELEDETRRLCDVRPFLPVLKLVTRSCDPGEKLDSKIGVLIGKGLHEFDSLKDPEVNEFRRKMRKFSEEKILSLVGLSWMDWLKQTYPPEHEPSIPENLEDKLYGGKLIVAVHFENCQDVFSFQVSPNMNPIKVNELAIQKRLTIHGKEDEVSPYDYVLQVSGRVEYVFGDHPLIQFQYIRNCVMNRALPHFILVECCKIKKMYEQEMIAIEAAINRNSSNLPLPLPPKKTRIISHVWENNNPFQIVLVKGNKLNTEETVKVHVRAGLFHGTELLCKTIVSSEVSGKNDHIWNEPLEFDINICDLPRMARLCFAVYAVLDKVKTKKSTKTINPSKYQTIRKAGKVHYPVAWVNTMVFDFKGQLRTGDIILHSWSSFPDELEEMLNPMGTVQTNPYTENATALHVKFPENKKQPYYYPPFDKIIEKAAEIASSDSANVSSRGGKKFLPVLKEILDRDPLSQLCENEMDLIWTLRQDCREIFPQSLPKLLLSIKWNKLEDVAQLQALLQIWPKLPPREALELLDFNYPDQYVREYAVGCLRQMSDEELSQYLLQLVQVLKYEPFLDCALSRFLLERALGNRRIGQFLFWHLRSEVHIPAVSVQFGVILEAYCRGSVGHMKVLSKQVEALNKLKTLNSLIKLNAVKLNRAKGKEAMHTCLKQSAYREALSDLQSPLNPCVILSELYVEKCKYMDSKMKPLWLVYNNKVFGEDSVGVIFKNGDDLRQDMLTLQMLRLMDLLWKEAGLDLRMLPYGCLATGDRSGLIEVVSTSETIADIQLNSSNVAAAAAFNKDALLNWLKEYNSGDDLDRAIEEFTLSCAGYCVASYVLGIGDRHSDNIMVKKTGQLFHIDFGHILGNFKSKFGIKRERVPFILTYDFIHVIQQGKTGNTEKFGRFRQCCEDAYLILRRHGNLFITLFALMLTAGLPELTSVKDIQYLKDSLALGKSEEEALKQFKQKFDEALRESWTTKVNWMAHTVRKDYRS

[10] = Passive permeability of compound in RRCK cells; format: ADME, cell-based, Canis lupus familiaris, MDCKII-LE; details: dog, MDCK; read-out: permeability
[11] = target: PI3-kinase p110-alpha/p85-alpha (Homo sapiens, UniProt P42336); assay: Inhibition of recombinant human full-length PI3K p110alpha/p85alpha (322 to 600) expressed in baculovirus infected Sf21 cells using phosphatidylinositol 4,5-bisphosphate as substrate preincubated for 15 mins followed by addition of ATP and measured after 30 mins by fluorescence polarisation assay
Chain of PI3-kinase p110-alpha/p85-alpha (P27986 whole entry): as the sequence (P27986 whole entry, one chain of several, canonical isoform) above
Chain of PI3-kinase p110-alpha/p85-alpha (P42336 whole entry): as the sequence (P42336 whole entry, canonical isoform) above

Homo sapiens [12] = organism: Homo sapiens; assay: Selectivity index, ratio of Ki for recombinant human PI3K p110beta/p85alpha to Ki for recombinant human full-length PI3K p110alpha/p85alpha (322 to 600) using phosphatidylinositol 4,5-bisphosphate as substrate
Homo sapiens [13] = organism: Homo sapiens; assay: Selectivity index, ratio of Ki for recombinant human PI3K p110delta/p85alpha to Ki for recombinant human full-length PI3K p110alpha/p85alpha (322 to 600) using phosphatidylinositol 4,5-bisphosphate as substrate
T47D = assay: Antiproliferation activity against human T47D cells assessed as reduction in cell viability incubated for 7 days by Cell-titer Glo reagent based assay; format: functional; details: 168 h
[14] = Inhibition of PI3K p110alpha […] mutant in human MCF7 cells assessed as reduction in phosphorylation of Akt at T308 residue incubated for 2 hrs by ELISA; format: cell-based; details: MCF7, 2 h
[15] = Inhibition of PI3K p110alpha H1047R mutant in human T47D cells assessed as reduction in phosphorylation of Akt at T308 residue incubated for 2 hrs by ELISA; format: cell-based
MCF7 = assay: Antiproliferation activity against human MCF7 cells assessed as reduction in cell viability incubated for 7 days by Cell-titer Glo reagent based assay; format: functional; details: MCF7, 168 h
[16] = target: Serine/threonine-protein kinase mTOR (Homo sapiens, UniProt P42345); assay: Inhibition of mTOR in TSC1 null human MCF7 cells assessed as decrease in p70S6K phosphorylation at Thr389 residue incubated for 2 hrs by ELISA; format: cell-based
[17] = Tmax in Wistar Han rat at 10 mg/kg, po; format: ADME, organism-based; details: in vivo
Homo sapiens [18] = organism: Homo sapiens; assay: Selectivity index, ratio of IC50 for recombinant human N-terminal Myr signal and C-terminal Flag-tagged PI3K p110delta to Ki for recombinant human full-length PI3K p110alpha/p85alpha
Homo sapiens [19] = organism: Homo sapiens; assay: Selectivity index, ratio of IC50 for recombinant human N-terminal Myr signal and C-terminal Flag-tagged PI3K p110beta to Ki for recombinant human full-length PI3K p110alpha/p85alpha
Homo sapiens [20] = organism: Homo sapiens; assay: Selectivity index, ratio of IC50 for mTOR in human MCF7 cells to Ki for recombinant human full-length PI3K p110alpha/p85alpha; format: cell-based
[21] = Cmax in Wistar Han rat at 10 mg/kg, po; format: ADME, organism-based; set-up: route oral, dose 10 mg/kg; details: in vivo
[22] = AUC (0 to t) in Wistar Han rat at 2 mg/kg, iv; format: ADME, organism-based; set-up: dose 2 mg/kg; details: in vivo
[23] = Half life in Wistar Han rat at 2 mg/kg, iv; format: ADME, organism-based; details: in vivo
[24] = Plasma clearance in Wistar Han rat at 2 mg/kg, iv; format: ADME, organism-based
[25] = Thermodynamic solubility of compound at pH 7.4; format: physicochemical; details: buffer, read-out: Therm_solubility
[26] = Oral bioavailability in Wistar Han rat at 10 mg/kg; format: ADME, organism-based; details: in vivo
[27] = AUC (0 to t) in Wistar Han rat at 10 mg/kg, po; format: ADME, organism-based; set-up: dose 10 mg/kg; details: in vivo
[28] = Volume of distribution at steady state in Wistar Han rat at 2 mg/kg, iv; format: ADME, organism-based; details: in vivo, read-out: Vdss
[29] = Kinetic solubility of compound at pH 7.4 after 24 hrs by LC/MS/MS analysis; format: physicochemical; details: buffer, read-out: Kinetic_solubility

Chain of Phosphatidylinositol 4,5-bisphosphate 3-kinase catalytic subunit beta isoform (P42338 whole entry, canonical isoform): as the sequence (P42338 whole entry) above

Row | Structure (SMILES) | IC50 [1] [nM] | Ratio IC50 (Rat1 [2]) | IC50 [3] [nM] | Ratio IC50 (Rat1 [4]) | logD [5] | microsomal CLint [6] [µL/min/mg] | Ki [7] [nM] | IC50 [8] [nM] | solubility kinetic [9] [µM] | Ki (PI3K p110 beta/p85 alpha) [nM] | Papp [10] [×10⁻⁶ cm/s] | Ki [11] [nM] | Ratio Ki (Homo sapiens [12]) | Ratio Ki (Homo sapiens [13]) | other results
1 | CC(C)C(=O)N1CC[C@](C)(N2CCc3c(-c4cnc(N)nc4)nc(N4CCOCC4)nc32)C1 | 260 | 37 | 17 | 3 | 2.4 | 46 | < 0.28 | 6.9 | 500 (≈ 226 µg/mL) | 17 | 36 | < 0.018 |  |  | 
2 | CNS(=O)(=O)N1CC[C@H](N2CCc3c(-c4cnc(N)nc4)nc(N4CCOCC4)nc32)C1 |  |  |  |  | 1.4 | < 11 | 4.5 | 130 | 380 (≈ 175 µg/mL) | 16 | 16 | 0.12 | 125 | 37 | 
3 | CC(=O)N1CC[C@H](N2CCc3c(-c4cnc(N)nc4)nc(N4CCOCC4)nc32)C1 |  |  |  |  | 1.1 | < 8 | 22 |  | 530 (≈ 218 µg/mL) | 20 | 13 |  | 17 | 19 | 
4 | Cc1nc(NC(=O)N2CCC[C@H]2C(N)=O)sc1-c1ccnc(C(C)(C)C(F)(F)F)c1 [ALPELISIB] |  |  |  |  |  |  |  |  |  |  |  |  |  |  | IC50 (T47D): 420 nM; IC50 [14]: 39 nM; IC50 [15]: 30 nM; IC50 (MCF7): 530 nM; IC50 [16]: 3000 nM
5 | CC(C)(N)C(=O)N1CC[C@](C)(N2CCc3c(-c4cnc(N)nc4)nc(N4CCOCC4)nc32)C1 | 330 | 13 | 120 | 5 | 0.4 | < 9 | 2.5 | 25 | 460 (≈ 215 µg/mL) | 13 | 4.2 | 0.023 |  |  | 
6 | Nc1ncc(-c2nc(N3CCOCC3)nc(N[C@@]3(CO)CCN(C(=O)OCC(F)F)C3)c2F)cn1 | 360 | 20 | 160 | 9 | 1.9 | < 18 | < 0.28 | 18 | 2.5 (≈ 1.25 µg/mL) | 2 | 13 | < 0.018 |  |  | Tmax [17]: 1 h; IC50 (T47D): 32 nM; Selectivity Index (Homo sapiens [18]): 9; Selectivity Index (Homo sapiens [19]): 20; IC50 [14]: 7.8 nM; Selectivity Index (Homo sapiens [20]): 83; Cmax [21]: 330 ng/mL; AUC(0-t) [22]: 1100 ng·h/mL; half-life [23]: 3.6 h; IC50 [15]: 8.7 nM; IC50 (MCF7): 62 nM; IC50 [16]: 1500 nM; clearance [24]: 30 mL/min/kg; solubility thermodynamic [25]: 6.2 µg/mL (≈ 12.4 µM); bioavailability [26]: 25%; AUC(0-t) [27]: 1400 ng·h/mL; Vd [28]: 3 L/kg; solubility kinetic at 24 h [29]: 1.3 µg/mL (≈ 2.61 µM)
7 | CC(C)(C)OC(=O)N1CC[C@](C)(N2CCc3c(-c4cnc(N)nc4)nc(N4CCOCC4)nc32)C1 | 640 | 94 | 92 | 14 | 3.7 | 160 | 0.46 | 6.8 | 97 (≈ 46.8 µg/mL) | 25 | 21 | < 0.018 | > 1390 | > 26 | 
